As usually defined, the IC50 is the concentration at which inhibition is half-maximal. The term Km denotes the substrate concentration at which the rate is half of its maximum. For orientation: Ki means the equilibrium dissociation constant of an inhibitor or competing ligand from its target. A higher Ki goes with lower affinity.

The source of these data is ChEMBL document CHEMBL4321827, “Development and Therapeutic Potential of Selenazo Compounds” (J Med Chem, 2020).

Test [1] is described as follows: Inhibition of Bacillus anthracis TrxR.
Another test concerns Cryptosporidium parvum. Description: Substrate activity at Cryptosporidium parvum glucose 6-phosphate isomerase.
Test [2] in a line: Inhibition of Candida albicans H+-ATPase.
A short description of test [3]: Inhibition of Aspergillus fumigatus TrxR.
In the next test the target is Histone deacetylase 9 (Homo sapiens, UniProt Q9UKV0). Description: Inhibition of human recombinant HDAC9 using acetyl-Lys(trifluoroacetyl)-AMC substrate by fluorescence based assay.
Sequence of Histone deacetylase 9 (Q9UKV0 whole entry): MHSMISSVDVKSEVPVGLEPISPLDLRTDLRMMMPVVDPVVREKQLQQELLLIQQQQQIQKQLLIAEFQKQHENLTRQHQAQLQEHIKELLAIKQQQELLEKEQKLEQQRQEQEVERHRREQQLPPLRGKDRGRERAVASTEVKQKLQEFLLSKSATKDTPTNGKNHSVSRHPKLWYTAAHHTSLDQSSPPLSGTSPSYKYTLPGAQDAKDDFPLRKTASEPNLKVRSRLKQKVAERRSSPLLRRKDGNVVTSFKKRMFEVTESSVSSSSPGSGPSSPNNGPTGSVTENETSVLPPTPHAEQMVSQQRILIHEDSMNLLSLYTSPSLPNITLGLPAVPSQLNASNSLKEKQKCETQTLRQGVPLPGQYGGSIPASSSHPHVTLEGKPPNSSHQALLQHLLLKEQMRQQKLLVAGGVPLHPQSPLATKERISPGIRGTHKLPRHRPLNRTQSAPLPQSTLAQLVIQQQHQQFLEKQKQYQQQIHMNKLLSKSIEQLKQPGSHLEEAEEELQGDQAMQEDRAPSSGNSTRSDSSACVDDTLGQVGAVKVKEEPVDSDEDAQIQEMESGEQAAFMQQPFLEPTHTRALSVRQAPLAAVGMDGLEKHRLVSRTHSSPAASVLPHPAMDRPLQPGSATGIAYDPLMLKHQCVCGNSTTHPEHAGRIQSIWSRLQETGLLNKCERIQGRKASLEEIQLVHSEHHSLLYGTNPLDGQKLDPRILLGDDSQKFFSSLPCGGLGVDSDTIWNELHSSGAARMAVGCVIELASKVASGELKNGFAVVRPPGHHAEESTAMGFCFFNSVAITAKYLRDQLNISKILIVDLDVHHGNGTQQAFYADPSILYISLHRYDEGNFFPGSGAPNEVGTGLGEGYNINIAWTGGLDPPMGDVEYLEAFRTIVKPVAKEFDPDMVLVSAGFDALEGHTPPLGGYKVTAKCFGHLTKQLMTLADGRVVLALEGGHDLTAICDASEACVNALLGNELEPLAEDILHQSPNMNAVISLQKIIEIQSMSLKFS
Test [4] can be described thus: Inhibition of inositol monophosphatase (unknown origin). More on the design: species or system Homo sapiens.
A further test has as its target Histone deacetylase 5 (Homo sapiens, UniProt Q9UQL6). Description: Inhibition of human recombinant HDAC5 using acetyl-Lys(trifluoroacetyl)-AMC substrate by fluorescence based assay.
For another test, the species on record is Rattus norvegicus. Description: Effect on SOD activity in brain of rat with ischemia/reperfusion injury assessed as enzyme activity per mg protein. It counts as functional.
In test [5] the target is T1, Protein deacetylase HDAC6 (Homo sapiens, UniProt Q9UBN7).
T1 sequence (Q9UBN7 whole entry): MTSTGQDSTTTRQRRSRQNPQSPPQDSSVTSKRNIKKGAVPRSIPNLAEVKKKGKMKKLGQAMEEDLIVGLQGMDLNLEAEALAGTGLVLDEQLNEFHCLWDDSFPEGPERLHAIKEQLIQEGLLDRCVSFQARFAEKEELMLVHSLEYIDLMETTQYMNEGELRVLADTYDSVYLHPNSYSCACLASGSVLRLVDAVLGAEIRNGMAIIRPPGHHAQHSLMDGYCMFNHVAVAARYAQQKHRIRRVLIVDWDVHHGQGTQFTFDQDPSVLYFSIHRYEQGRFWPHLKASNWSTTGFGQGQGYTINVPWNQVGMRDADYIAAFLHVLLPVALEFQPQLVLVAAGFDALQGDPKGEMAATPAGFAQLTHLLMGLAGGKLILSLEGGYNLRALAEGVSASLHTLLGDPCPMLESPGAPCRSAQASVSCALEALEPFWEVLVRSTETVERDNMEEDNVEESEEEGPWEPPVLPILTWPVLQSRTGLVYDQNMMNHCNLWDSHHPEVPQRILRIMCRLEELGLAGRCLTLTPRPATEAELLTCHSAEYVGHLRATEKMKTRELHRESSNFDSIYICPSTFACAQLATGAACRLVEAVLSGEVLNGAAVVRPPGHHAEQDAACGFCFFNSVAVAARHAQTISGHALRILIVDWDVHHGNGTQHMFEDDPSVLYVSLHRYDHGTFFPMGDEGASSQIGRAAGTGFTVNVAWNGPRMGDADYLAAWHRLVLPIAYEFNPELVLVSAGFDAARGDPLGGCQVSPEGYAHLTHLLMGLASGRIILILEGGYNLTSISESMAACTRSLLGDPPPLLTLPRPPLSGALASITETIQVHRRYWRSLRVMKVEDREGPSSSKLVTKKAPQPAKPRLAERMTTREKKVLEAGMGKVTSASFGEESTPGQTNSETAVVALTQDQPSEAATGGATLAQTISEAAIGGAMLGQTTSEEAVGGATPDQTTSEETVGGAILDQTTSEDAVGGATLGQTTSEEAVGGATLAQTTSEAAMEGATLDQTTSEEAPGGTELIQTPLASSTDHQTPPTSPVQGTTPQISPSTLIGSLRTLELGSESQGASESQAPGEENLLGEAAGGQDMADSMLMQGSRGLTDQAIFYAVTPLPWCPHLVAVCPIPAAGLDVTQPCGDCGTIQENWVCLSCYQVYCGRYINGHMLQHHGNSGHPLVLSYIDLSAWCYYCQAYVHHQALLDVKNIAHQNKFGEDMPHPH
Description: Inhibition of human recombinant HDAC6 using RHKKAc-AMC substrate by fluorescence based assay.

Sequence of Histone deacetylase 5 (Q9UQL6 whole entry, the tested form may be a part): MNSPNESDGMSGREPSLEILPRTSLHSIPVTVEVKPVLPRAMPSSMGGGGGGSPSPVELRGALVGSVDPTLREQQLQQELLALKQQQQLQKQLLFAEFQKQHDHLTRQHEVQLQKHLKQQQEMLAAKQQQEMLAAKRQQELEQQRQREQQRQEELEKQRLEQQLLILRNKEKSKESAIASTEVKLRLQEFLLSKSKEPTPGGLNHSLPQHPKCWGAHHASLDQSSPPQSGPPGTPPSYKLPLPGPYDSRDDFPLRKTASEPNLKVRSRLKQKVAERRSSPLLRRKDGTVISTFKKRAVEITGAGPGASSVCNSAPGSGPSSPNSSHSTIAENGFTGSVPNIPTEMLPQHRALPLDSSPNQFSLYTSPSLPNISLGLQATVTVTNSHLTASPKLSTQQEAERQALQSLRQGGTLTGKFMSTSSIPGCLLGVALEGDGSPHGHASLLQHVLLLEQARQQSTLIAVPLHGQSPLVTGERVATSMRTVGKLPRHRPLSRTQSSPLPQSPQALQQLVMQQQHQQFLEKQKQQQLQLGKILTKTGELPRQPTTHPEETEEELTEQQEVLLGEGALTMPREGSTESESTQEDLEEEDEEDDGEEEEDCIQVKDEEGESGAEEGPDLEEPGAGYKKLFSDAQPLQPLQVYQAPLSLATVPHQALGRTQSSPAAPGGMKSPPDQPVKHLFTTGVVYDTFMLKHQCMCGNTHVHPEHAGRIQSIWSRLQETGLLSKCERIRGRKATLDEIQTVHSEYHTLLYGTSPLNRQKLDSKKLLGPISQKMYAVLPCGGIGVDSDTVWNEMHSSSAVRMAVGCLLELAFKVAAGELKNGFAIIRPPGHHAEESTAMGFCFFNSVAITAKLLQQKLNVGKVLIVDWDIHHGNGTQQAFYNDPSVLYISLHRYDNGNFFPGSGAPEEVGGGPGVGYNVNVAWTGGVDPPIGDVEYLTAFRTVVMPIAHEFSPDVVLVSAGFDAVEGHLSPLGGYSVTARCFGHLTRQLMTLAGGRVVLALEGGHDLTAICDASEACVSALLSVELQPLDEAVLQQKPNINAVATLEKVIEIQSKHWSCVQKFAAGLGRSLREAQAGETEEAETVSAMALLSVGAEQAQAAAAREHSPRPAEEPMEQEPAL

Turning to `O=c1c2ccccc2[se]n1-c1ccccc1` [EBSELEN], the IC50 was 1 µM in [1]; 3.9 µM in [2]; 3.7 µM at Histone deacetylase 9; 1.5 µM in test [4]; 3.4 µM on Histone deacetylase 5; 6.9 µM in test [5]. Moreover, the Michaelis constant (Km) with Cryptosporidium parvum was 309 µM. In addition, the affinity in test [3] corresponds to a Ki of 0.22 µM. For the same compound, the Activity in the test listed under Rattus norvegicus is listed as 0.105 U.
